Results from PubChem BioAssay AID2060603 (Molecular Pharmacology Branch, DTP, NCI, 2025).

Test system: 422866-222-R5-J1-PDC spheroid viability
Test: Anticancer human tumor 422866-222-R5-J1-PDC patient-derived pancreatic adenocarcinoma cell line growth inhibition [CLK]
Settings: spheroids with HUVEC and MSC; for IC50: curve of first compound; for viability, T/C: stronger effect = lower value
In short: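 Patient-derived tumor cells grown as complex spheroids with HUVEC endothelial cells and mesenchymal stem cells, treated with drug combinations. Concentrations descend in half-log steps from near clinical Cmax, or from 10 microM if Cmax unknown.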

[1] = second compound 0.0316 µM, first compound 0.0316 µM
[2] = second compound 0.0316 µM, first compound 0.1 µM
[3] = second compound 0.0316 µM, first compound 0.316 µM
[4] = second compound 0.0316 µM, first compound 1 µM
[5] = second compound 0.1 µM, first compound 0.0316 µM
[6] = second compound 0.1 µM, first compound 0.1 µM
[7] = second compound 0.1 µM, first compound 0.316 µM
[8] = second compound 0.1 µM, first compound 1 µM
[9] = second compound 0.316 µM, first compound 0.0316 µM
[10] = second compound 0.316 µM, first compound 0.1 µM
[11] = second compound 0.316 µM, first compound 0.316 µM
[12] = second compound 0.316 µM, first compound 1 µM
[13] = second compound 1 µM, first compound 0.0316 µM
[14] = second compound 1 µM, first compound 0.1 µM
[15] = second compound 1 µM, first compound 0.316 µM
[16] = second compound 1 µM, first compound 1 µM
[17] = second compound 3.16 µM, first compound 0.0316 µM
[18] = second compound 3.16 µM, first compound 0.1 µM
[19] = second compound 3.16 µM, first compound 0.316 µM
[20] = second compound 3.16 µM, first compound 1 µM
[21] = second compound 10 µM, first compound 0.0316 µM
[22] = second compound 10 µM, first compound 0.1 µM
[23] = second compound 10 µM, first compound 0.316 µM
[24] = second compound 10 µM, first compound 1 µM
[25] = second compound 0.0316 µM, first compound 0.00316 µM
[26] = second compound 0.0316 µM, first compound 0.01 µM
[27] = second compound 0.1 µM, first compound 0.00316 µM
[28] = second compound 0.1 µM, first compound 0.01 µM
[29] = second compound 0.316 µM, first compound 0.00316 µM
[30] = second compound 0.316 µM, first compound 0.01 µM
[31] = second compound 1 µM, first compound 0.00316 µM
[32] = second compound 1 µM, first compound 0.01 µM
[33] = second compound 3.16 µM, first compound 0.00316 µM
[34] = second compound 3.16 µM, first compound 0.01 µM
[35] = second compound 10 µM, first compound 0.00316 µM
[36] = second compound 10 µM, first compound 0.01 µM
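Also: spheroids exposed to agents for seven days before readout.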

Compound CC(Nc1ccc2c(c1)OCCn1cc(N3C(=O)OCC3C(F)F)nc1-2)C(N)=O (stereo unspecified) + CNC(=O)c1ccc(Nc2nc(OC3CCCC3)c3c(-c4ccc5nc(C)oc5c4)c[nH]c3n2)c(OC)c1 has an IC50 (second compound 0.0316 µM) of 0.144 µM, an IC50 (second compound 0.1 µM) of 0.175 µM and an IC50 (second compound 0.316 µM) of 0.086 µM. It also gave an IC50 (second compound 1 µM) of 0.0485 µM, an IC50 (second compound 3.16 µM) of 0.032 µM and an IC50 (second compound 10 µM) of 0.0626 µM. It also gave a viability, T/C [1] of 80.2%, a viability, T/C [2] of 52.4% and a viability, T/C [3] of 42.6%. It also gave a viability, T/C [4] of 35.1%, a viability, T/C (second compound 0.0316 µM, first compound 3.16 µM) of 30.1% and a viability, T/C (second compound 0.0316 µM, first compound 10 µM) of 28.7%. The viability, T/C [5] was 83.7%, the viability, T/C [6] was 56.9% and the viability, T/C [7] was 43.8%. It also gave a viability, T/C [8] of 32.8%, a viability, T/C (second compound 0.1 µM, first compound 3.16 µM) of 25.6% and a viability, T/C (second compound 0.1 µM, first compound 10 µM) of 31.9%. For the same compound, the viability, T/C [9] was 56.3%, the viability, T/C [10] was 49.1% and the viability, T/C [11] was 37%. The viability, T/C [12] was 28.1%, the viability, T/C (second compound 0.316 µM, first compound 3.16 µM) was 29.2% and the viability, T/C (second compound 0.316 µM, first compound 10 µM) was 24.2%. For the same compound, the viability, T/C [13] was 56.2%, the viability, T/C [14] was 37.6% and the viability, T/C [15] was 37.7%. It also gave a viability, T/C [16] of 31%, a viability, T/C (second compound 1 µM, first compound 3.16 µM) of 26.2% and a viability, T/C (second compound 1 µM, first compound 10 µM) of 24.9%. It also gave a viability, T/C [17] of 50.2%, a viability, T/C [18] of 41.2% and a viability, T/C [19] of 37.5%. It also gave a viability, T/C [20] of 29.4%, a viability, T/C (second compound 3.16 µM, first compound 3.16 µM) of 28.8% and a viability, T/C (second compound 3.16 µM, first compound 10 µM) of 25.3%. The viability, T/C [21] was 58.9%, the viability, T/C [22] was 43% and the viability, T/C [23] was 36.7%. For the same compound, the viability, T/C [24] was 31.9%, the viability, T/C (second compound 10 µM, first compound 3.16 µM) was 33.1% and the viability, T/C (second compound 10 µM, first compound 10 µM) was 25.8%.
For CCN1CCN(Cc2ccc(Nc3ncc(F)c(-c4cc(F)c5nc(C)n(C(C)C)c5c4)n3)nc2)CC1 + CNC(=O)c1ccc(Nc2nc(OC3CCCC3)c3c(-c4ccc5nc(C)oc5c4)c[nH]c3n2)c(OC)c1, the IC50 (second compound 0.0316 µM) was > 1 µM, the IC50 (second compound 0.1 µM) was > 1 µM and the IC50 (second compound 0.316 µM) was > 1 µM. For the same compound, the IC50 (second compound 1 µM) was > 1 µM, the IC50 (second compound 3.16 µM) was > 1 µM and the IC50 (second compound 10 µM) was > 1 µM. For the same compound, the viability, T/C [25] was 96.2%, the viability, T/C [26] was 111% and the viability, T/C [1] was 79%. It also gave a viability, T/C [2] of 73.5%, a viability, T/C [3] of 80.9% and a viability, T/C [4] of 96.2%. For the same compound, the viability, T/C [27] was 81.5%, the viability, T/C [28] was 84.5% and the viability, T/C [5] was 72.1%. The viability, T/C [6] was 64.4%, the viability, T/C [7] was 77.5% and the viability, T/C [8] was 88.9%. It also gave a viability, T/C [29] of 67.5%, a viability, T/C [30] of 58.9% and a viability, T/C [9] of 60.5%. The viability, T/C [10] was 59.3%, the viability, T/C [11] was 65.3% and the viability, T/C [12] was 71.9%. For the same compound, the viability, T/C [31] was 72%, the viability, T/C [32] was 62.8% and the viability, T/C [13] was 59.2%. The viability, T/C [14] was 47.9%, the viability, T/C [15] was 62.8% and the viability, T/C [16] was 65.6%. The viability, T/C [33] was 65.2%, the viability, T/C [34] was 51.5% and the viability, T/C [17] was 56.2%. For the same compound, the viability, T/C [18] was 56.2%, the viability, T/C [19] was 66.5% and the viability, T/C [20] was 67.9%. The viability, T/C [35] was 54.6%, the viability, T/C [36] was 62.1% and the viability, T/C [21] was 54.5%. For the same compound, the viability, T/C [22] was 58.6%, the viability, T/C [23] was 63.2% and the viability, T/C [24] was 74.2%.
Work on COc1c(OCCCN2CCOCC2)ccc2c3n(c(=NC(=O)c4cnc(N)nc4)nc12)CCN3 + CNC(=O)c1ccc(Nc2nc(OC3CCCC3)c3c(-c4ccc5nc(C)oc5c4)c[nH]c3n2)c(OC)c1 yielded an IC50 (second compound 0.0316 µM) of 0.0119 µM, an IC50 (second compound 0.1 µM) of 0.0168 µM and an IC50 (second compound 0.316 µM) of 0.0118 µM. The IC50 (second compound 1 µM) was < 0.00316 µM, the IC50 (second compound 3.16 µM) was 0.0085 µM and the IC50 (second compound 10 µM) was < 0.00316 µM. For the same compound, the viability, T/C [25] was 83.3%, the viability, T/C [26] was 51.5% and the viability, T/C [1] was 39.9%. It also gave a viability, T/C [2] of 26.8%, a viability, T/C [3] of 28.4% and a viability, T/C [4] of 30.3%. For the same compound, the viability, T/C [27] was 72.2%, the viability, T/C [28] was 60% and the viability, T/C [5] was 37.7%. It also gave a viability, T/C [6] of 32.1%, a viability, T/C [7] of 26.7% and a viability, T/C [8] of 33.4%. The viability, T/C [29] was 62.8%, the viability, T/C [30] was 53.6% and the viability, T/C [9] was 29.5%. For the same compound, the viability, T/C [10] was 23.9%, the viability, T/C [11] was 25.7% and the viability, T/C [12] was 32.9%. The viability, T/C [31] was 50.1%, the viability, T/C [32] was 47.1% and the viability, T/C [13] was 33.5%. The viability, T/C [14] was 27.6%, the viability, T/C [15] was 25.9% and the viability, T/C [16] was 36.8%. For the same compound, the viability, T/C [33] was 57.6%, the viability, T/C [34] was 48.7% and the viability, T/C [17] was 31.9%. The viability, T/C [18] was 25.4%, the viability, T/C [19] was 28.6% and the viability, T/C [20] was 36.1%. For the same compound, the viability, T/C [35] was 47.2%, the viability, T/C [36] was 43.3% and the viability, T/C [21] was 35.5%. It also gave a viability, T/C [22] of 28%, a viability, T/C [23] of 33.5% and a viability, T/C [24] of 36.1%.
